According to patent publication US6410571B1, “Heterocyclic carboxamide-containing thiourea inhibitors of herpes viruses containing a substituted phenylenediamine group” (American Home Products Corporation, priority 1998, dated 2002):
Values after ≈ are worked out from the molar mass of the structure shown.

What was measured:
HSV-1 = assay: HSV Antiviral (ELISA) Assay; assay type: cell-based, herpes simplex virus type 1; settings: Vero cells; for IC50: Human alphaherpesvirus 1, read-out: IC50 (ug/ml) HSV
Method: Vero cells (ATCC #CCL-81) are plated on 96-well tissue culture plates at 3.5×10^4 cells per 100 μl tissue culture DMEM (Dulbecco's modified Eagle media) supplemented with 2% fetal bovine serum (FBS) in each well. After overnight incubation @37° C. (in 5% CO2) and 30 minutes prior to infection with HSV-1 (multiplicity of infection equal to 0.006), cells are either untreated, or treated with test compound (multiple concentrations) or reference standard drug control. After approximately 24 hours post-infection incubation @37° C. (in 5% CO2), cells are fixed for ELISA assay. The primary antibody is murine anti-HSV glycoprotein D monoclonal primary antibody and the secondary antibody is goat anti-mouse IgG linked to β-galactosidase. Thus the extent of viral replication is determined by assessing β-galactosidase activity by quantifying the generation of the 4-methyl umbeliiferone fluorescent cleavage product after addition of the methyl umbelliferyl-β-D-galactoside (Sigma #M1633) substrate on a microfluorimeter (365 nm for excitation and 450 nm for emission). Antiviral activity (IC50) of the test compound is determined by comparing the flourescence obtained in absence of compound to that obtained in the presence of compound.

HCMV wild-type = assay: HCMV yield assay; assay type: cell-based, human cytomegalovirus; settings: human foreskin fibroblasts; for IC50: Human betaherpesvirus 5, Fibroblast, read-out: IC50 (ug/ml) HCMV
Method: Yield assay. Monolayer cultures of human foreskin fibroblasts are infected with HCMV wild-type, typically at a multiplicity of infection equal to 0.2, in the presence of inhibitor compound (varying concentrations). At three days post-infection, total virus produced in these cultures (i.e. virus yield) is assessed by harvesting and titering the virus in 12-well plates of cultured human foreskin fibroblasts (done in the absence of inhibitor). Plaques are quantified at 2 weeks post-infection. An inhibitor of HCMV is identified by the reduction in titer of virus yield in the presence, compared to the titer in the absence of compound. In this assay, the relative anti-HCMV activity of an inhibitor is typically determined by calculating the IC50 or IC90 value, that is, the amount of compound required to reduce the virus yield by 50% or 90%, respectively. Table I describes IC50 data for compounds tested against HCMV.

VZV strain Ellen = assay: VZV Antiviral (ELISA) Assay; assay type: cell-based, varicella-zoster virus; settings: human foreskin fibroblast cells; for inhibition at 10 µg/mL: Human alphaherpesvirus 3, read-out: % inhibition 10 ug/ml VZV; for inhibition at 10 µg/mL / % inhibition 10 ug/ml VZV: 10 ug/ml; for IC50: Human alphaherpesvirus 3, read-out: IC50 (ug/ml) VZV
Method: For the generation of stock VZV to be used in the assay, VZV strain Ellen (ATCC #VR-1367) is used to infect human foreskin fibroblast (HFF) cells at low multiplicity (less than 0.1) and incubated overnight at 37° C. in 5% CO2. After the overnight incubation, the mixture of uninfected and VZV-infected HFF infected cells are then harvested and added to each well of 96-well plates (3.5×10^4 cells in 100 μl DMEM supplemented with 2% FBS) which contain test compound or the reference standard drug control (in 100 μl DMEM supplemented with 2% FBS per well). These cells are incubated for three days at 37° C. in 5% CO2, then fixed for ELISA assay. The primary antibody is murine anti-VZV glycoprotein II monoclonal antibody (Applied Biosystems, Inc. #13-145-100) and the secondary antibody is goat anti-mouse IgG linked to β-galactosidase. Thus the extent of viral replication is determined by assessing β-galactosidase activity by quantifying the generation of the 4-methyl umbelliferone fluorescent cleavage product after addition of the methyl umbelliferyl-β-D-galactoside (Sigma #M1633) substrate on a microfluorimeter (365 nm for excitation and 450 nm for emission). Antiviral activity (IC50) of the test compound is determined by comparing the flourescence obtained in absence of compound to that obtained in the presence of compound.

| Compound | IC50 (HSV-1) [µg/mL] | IC50 (HCMV wild-type) [µg/mL] | inhibition at 10 µg/mL (VZV strain Ellen) [%] | IC50 (VZV strain Ellen) [µg/mL] | IC50 (ug/ml) HSV (HSV-1) [µg/mL] | IC50 (ug/ml) HCMV (HCMV wild-type) [µg/mL] | % inhibition 10 ug/ml VZV (VZV strain Ellen) [%] | IC50 (ug/ml) VZV (VZV strain Ellen) [µg/mL] |
| --- | --- | --- | --- | --- | --- | --- | --- | --- |
| COc1cc(OC)c(NC(=S)Nc2cc(O)c(NC(=O)c3ccco3)cc2Cl)cc1Cl [Example 320, Furan-2-carboxylic acid {5-chloro-4-[3-(5-chloro-2,4-dimethoxy-phenyl)-thioureido]-2-hydroxy-phenyl}-amide] | 8 (≈ 16.6 µM) | 8 (≈ 16.6 µM) | 50 | > 10 | – | – | – | – |
| COc1cc(OC)c(NC(=S)Nc2ccc(NC(=O)c3ccco3)c(C(=O)c3ccccc3)c2)cc1Cl [Example 294, Furan-2-carboxylic acid {2-benzoyl-4-[3-(5-chloro-2,4-dimethoxy-phenyl)-thioureido]-phenyl}-amide] | > 50 | > 10 | 0 | > 10 | – | – | – | – |
| COc1cc(OC)c(NC(=S)Nc2ccc(NC(=O)c3ccco3)c(C(F)(F)F)c2)cc1Cl [Example 308, Furan-2-carboxylic acid {4-[3-(5-chloro-2,4-dimethoxy-phenyl)-thioureido]-2-trifluoromethyl-phenyl}-amide] | 10 (≈ 20 µM) | 10 (≈ 20 µM) | 100 | 4 (≈ 8 µM) | – | – | – | – |
| COc1cc(OC)c(NC(=S)Nc2ccc(NC(=O)c3ccco3)c(OC)c2)cc1Cl [Example 304, Furan-2-carboxylic acid {4-[3-(5-chloro-2,4-dimethoxy-phenyl)-thioureido]-2-methoxy-phenyl}-amide] | 8 (≈ 17.3 µM) | 7 (≈ 15.2 µM) | 44 | 11 (≈ 23.8 µM) | – | – | – | – |
| COc1cc(OC)c(NC(=S)Nc2ccc(NC(=O)c3ccco3)cc2C(F)(F)F)cc1Cl [Example 858, Furan-2-carboxylic acid {4-[3-(5-chloro-2,4-dimethoxy-phenyl)-thioureido]-3-trifluoromethyl-phenyl}-amide] | 2.5 (≈ 5 µM) | 2 (≈ 4 µM) | 26 | > 10 | – | – | – | – |
| COc1cc(OC)c(NC(=S)Nc2ccc(NC(=O)c3ccco3)c(C)c2)cc1Cl [Example 311, Furan-2-carboxylic acid {4-[3-(5-chloro-2,4-dimethoxy-phenyl)-thioureido]-2-methyl-phenyl}-amide] | 12 (≈ 26.9 µM) | 6 (≈ 13.5 µM) | 13 | > 10 | – | – | – | – |
| COc1cc(OC)c(NC(=S)Nc2cc(C)c(NC(=O)c3ccco3)cc2Cl)cc1Cl [Example 328, Furan-2-carboxylic acid {5-chloro-4[3-(5-chloro-2,4-dimethoxy-phenyl)-thioureido]-2-methyl-phenyl}-amide] | > 10 | > 10 | 44 | > 10 | – | – | – | – |
| COc1cc(OC)c(NC(=S)Nc2ccc(NC(=O)c3ccco3)c(C#N)c2)cc1Cl [Example 306, Furan-2-carboxylic acid {4-[3-(5-chloro-2,4-dimethoxy-phenyl)-thioureido]-2-cyano-phenyl}-amide] | > 10 | 2.5 (≈ 5.47 µM) | 33 | > 10 | – | – | – | – |
| 5-[3-(5-Chloro-2,4-dimethoxy-phenyl)-thioureido]-2-[(furan-2-carbonyl)-amino]-benzoic acid [Example 339] | – | – | – | – | >50 | 50 | 11 | >10 |
| COc1cc(OC)c(NC(=S)Nc2ccc(NC(=O)c3ccco3)c(C(=O)Nc3ccccc3)c2)cc1Cl [Example 302, Furan-2-carboxylic acid {4-[3-(5-chloro-2,4-dimethoxy-phenyl)-thioureido]-2-phenylcarbamoyl-phenyl}-amide] | 10 (≈ 18.1 µM) | > 10 | 5 | > 10 | – | – | – | – |
| COc1cc(OC)c(NC(=S)Nc2cc(OC)c(NC(=O)c3ccco3)cc2OC)cc1Cl [Example 276, Furan-2-carboxylic acid {4-[3-(5-chloro-2,4-dimethoxy-phenyl)-thioureido]-2,5-dimethoxy-phenyl}-amide] | > 10 | > 10 | 75 | 4 (≈ 8.13 µM) | – | – | – | – |
| COc1cc(OC)c(NC(=S)Nc2ccc(NC(=O)c3ccco3)c(Cl)c2)cc1Cl [Example 307, Furan-2-carboxylic acid {2-chloro-4-[3-(5-chloro-2,4-dimethoxy-phenyl)-thioureido]-phenyl}-amide] | > 10 | 5 (≈ 10.7 µM) | 30 | > 10 | – | – | – | – |
| COc1cc(OC)c(NC(=S)Nc2ccc(NC(=O)c3ccco3)cc2Cl)cc1Cl [Example 356, Furan-2-carboxylic acid {3-chloro-4-[3-(5-chloro-2,4-dimethoxy-phenyl)thioureido]-phenyl}-amide] | 0.5 (≈ 1.07 µM) | 0.4 (≈ 0.858 µM) | 72 | 1.9 (≈ 4.07 µM) | – | – | – | – |
| COc1cc(OC)c(NC(=S)Nc2cc(OC)c(NC(=O)c3ccco3)cc2C)cc1Cl [Example 287, Furan-2-carboxylic acid {4-[3-(5-chloro-2,4-dimethoxy-phenyl)-thioureido]-2-methoxy-5-methyl-phenyl}-amide] | 8 (≈ 16.8 µM) | > 50 | 5 | > 10 | – | – | – | – |
| Furan-2-carboxylic acid {4-[3-(5-chloro-2,4-dimethoxy-phenyl)-thioureido]-3-cyano-phenyl}-amide [Example 382] | – | – | – | – | >10 | >10 | 46 | >10 |
| COc1cc(OC)c(NC(=S)Nc2ccc(NC(=O)c3ccco3)cc2OC)cc1Cl [Example 390, Furan-2-carboxylic acid {4-[3-(5-chloro-2,4-dimethoxy-phenyl)-thioureido]-3-methoxy-phenyl}-amide] | 0.5 (≈ 1.08 µM) | > 10 | 61 | > 10 | – | – | – | – |
| COc1cc(OC)c(NC(=S)Nc2ccc(NC(=O)c3ccco3)c3ccccc23)cc1Cl [Example 324, Furan-2-carboxylic acid {4-[3-(5-chloro-2,4-dimethoxy-phenyl)-thioureido]-naphthalen-1-yl}-amide] | 4 (≈ 8.3 µM) | 8 (≈ 16.6 µM) | 24 | > 10 | – | – | – | – |
| COc1cc(OC)c(NC(=S)Nc2ccc(NC(=O)c3ccco3)cc2C)cc1Cl [Example 296, Furan-2-carboxylic acid {4-[3-(5-chloro-2,4-dimethoxy-phenyl)-thioureido]-3-methyl-phenyl}-amide] | 1.2 (≈ 2.69 µM) | 8 (≈ 17.9 µM) | 48 | > 10 | – | – | – | – |
